Values quoted from earlier work, collected in patent US11890375B2, “Ophthalmic solution of difluprednate” (SUN PHARMA ADVANCED RESEARCH COMPANY LIMITED, priority 2015, dated 2024).

solubility in aqueous vehicle: practically insoluble
Compound: CCCC(=O)O[C@]1(C(=O)COC(C)=O)CC[C@H]2[C@@H]3C[C@H](F)C4=CC(=O)C=C[C@]4(C)[C@@]3(F)[C@@H](O)C[C@@]21C [Difluprednate]
